According to US12097182B2, “Compounds and methods for treatment of inflammatory bowel disease with extra-intestinal manifestations” (Arena Pharmaceuticals, Inc., priority 2017, dated 2024):

Columns and labels:
chronic plaque psoriasis = settings: cited from earlier work
[1] = tested on: collagen induced arthritis (CIA); settings: cited from earlier work
[2] = tested on: experimental autoimmune encephalomyelitis (EAE); settings: up to day 25, when dosing was discontinued; cited from earlier work
lymphocyte = test: Single and multiple ascending dose studies in healthy subjects; type: in vivo

Row | Compound | severity of chronic plaque psoriasis (chronic plaque psoriasis; chronic oral administration, phase 2) | associated adverse events (chronic plaque psoriasis; phase 2 psoriasis study) | ankle diameters in CIA ([1]; prophylactic daily oral dose, day 17, similar to fingolimod or methotrexate) | histological parameters in knees and ankles of CIA rats ([1]; rat, in vivo) | EAE disease onset and severity, prophylactic administration [2] | lymphocyte lowering in healthy subjects (lymphocyte)
1 | CCC/N=C1\S/C(=C\c2ccc(OC[C@H](O)CO)c(Cl)c2)C(=O)N1c1ccccc1C [ponesimod] | reduce the severity of chronic plaque psoriasis | dyspnea, elevated liver enzymes, bradycardia, headache and dizziness |  |  |  | 
2 | O=C(O)C[C@H]1CCc2c1[nH]c1ccc(OCc3ccc(C4CCCC4)c(C(F)(F)F)c3)cc21 [Compound 1, (R)-2-(7-(4-cyclopentyl-3-(trifluoromethyl)benzyloxy)-1,2,3,4-tetrahydrocyclopenta[b]indol-3-yl)acetic acid] |  |  | significant reduction in ankle diameters | Improvement in histological parameters | prevented the onset and severity of disease relative to vehicle | demonstrated the lymphocyte lowering capabilities
